“Also recorded” adds a separate entry of the source. Where no end group is shown, it is not given here.
How the values were obtained:
murine β-cell lines = conditions: previously published; cited from earlier work
mouse islets = test: MTT assay of cell metabolism and mitochondrial function in isolated islets; assay type: cell-based; conditions: LSF 50 μM, Ex-4 20 nM
Method: FIG. 3 depicts the effect of mitochondrial metabolism (as reflected by level of MTT metabolite) observed in isolated mouse islets after individual and combined treatment with LSF and Ex-4.
(§1) For in vitro studies (Examples 1-3), freshly isolated BALB/c pancreatic islets were incubated at 37° C. with either LSF (50 μM) alone, Ex-4 (20 nM) alone, or with LSF/Ex-4 combined. After 3 days of culture, islets were treated with or without pro-inflammatory cytokines (10 ng/mL IL-1β, 20 ng/mL TNF-α, and 100 ng/mL IFN-γ) overnight. Insulin secretion was measured in low and high glucose using a standard elisa method for mouse insulin. Apoptotic islets were quantitatively assessed. MTT assay was used to evaluate cell metabolism and mitochondrial function.
We previously published, in murine β-cell lines and human islets that both ATP production and mitochondrial metabolism (MTT metabolite levels) were increased by LSF treatment.

[1] = system: NOD mouse pancreatic sections; test: Brdu staining of NOD mouse pancreatic sections (cell proliferation in vivo); conditions: diabetic NOD mice treated 28 days via mini-pumps; Brdu 50 mg/kg I.P., tissue 24 hours later
Method: FIG. 6 depicts results of Brdu staining of NOD mouse pancreatic sections treated with saline (control), Ex-4 alone, LSF alone and LSF and Ex-4 combined, respectively.
Ex-4/LSF-associated cell proliferation in vivo was evaluated. Diabetic NOD mice that were treated with Ex-4 alone, Ex-4 plus LSF, LSF alone and normal saline for 28 days via mini-pumps were injected with Brdu (50 mg/kg) I.P. 24 hours later, pancreatic tissues were collected and stained with an anti-Brdu antibody.

BALB/c pancreatic islets = test: Insulin secretion of isolated islets in low and high glucose (EIA/ELISA); assay type: cell-based, mouse; conditions: 3 days culture, LSF 50 μM, Ex-4 20 nM, 3 mM then 28 mM glucose, one-hour incubation
Method: FIG. 1 depicts the amount of insulin in the supernate sample as determined by EIA after one-hour incubation with each of 3 mM and subsequent 28 mM glucose medium.
as §1
(See FIG. 1 in which “*” and “^” indicate P<0.005 compared to “none” treatment group).

human islets = conditions: previously published; cited from earlier work
[2] = system: mouse islets exposed to pro-inflammatory cytokines (IL-1β, TNF-α, IFN-γ); test: Apoptosis of mouse islets exposed to pro-inflammatory cytokines; assay type: cell-based; conditions: LSF 50 μM, Ex-4 20 nM; 10 ng/mL IL-1β, 20 ng/mL TNF-α, 100 ng/mL IFN-γ overnight
Method: FIG. 2 depicts the effect in apoptosis reduction in isolated mouse islets after individual and combined treatment of LSF and Ex-4 in vitro.
as §1
Cellular death (apoptosis) was quantified using an established method in mouse islets exposed to pro-inflammatory cytokines.

[3] = system: non-obese diabetic (NOD) mice; test: Reversal of established diabetes in NOD mice, blood glucose monitoring, 28-day osmotic mini-pump; assay type: in vivo, mouse; conditions: LSF 27 mg/kg/day, Ex-4 18 nM/day
Method: FIG. 4 depicts average levels of blood glucose in 4 NOD mice groups treated with saline (control), Ex-4 alone, LSF alone and LSF and Ex-4 combined, respectively.
Pre-diabetic non-obese diabetic (NOD) mice were monitored until two consecutive blood glucose readings within a week were above 250 mg/dL. This indicated the animals had already become diabetic. At this point a mini-osmotic pump was filled with one of the following and implanted subcutaneously: • Normal saline (control) • Ex-4 • LSF • Ex-4 and LSF
Blood glucose levels in these mice were monitored, and a small dose of insulin was administered to the hyperglycemic mice to maintain euglycemia for the first few days. The pump was removed after 28 days, discontinuing treatment with the drug; however, the blood glucose levels were continually monitored for several more weeks. These mice were then sacrificed, and slide sections were prepared from their pancreases to evaluated histology and insulin staining (Example 5) and evidence for growth the new beta cells (Example 6).
These NOD were spontaneously diabetic between 20-25 weeks of age. The control groups include normal saline, LSF alone (27 mg/kg/day) and Ex-4 alone (18 nM/day). […] Four mice were in each group. Diabetes reversal was seen within 2-3 days after implantation of LSF/Ex-4 pumps, while hyperglycemia was controlled 10-12 days after LSF alone pump therapy.

[4] = system: overt diabetic NOD (Non-Obese Diabetic) mice; conditions: previously overt diabetic NOD mice; literature study; cited from earlier work

Compound | ATP production and mitochondrial metabolism (MTT metabolite levels) (murine β-cell lines) | mitochondrial metabolism (MTT metabolite level) (mouse islets) | Brdu-positive cells in pancreatic tissue [1] | insulin release upon glucose stimulation (BALB/c pancreatic islets) | ATP production and mitochondrial metabolism (MTT metabolite levels) (human islets) | protection of islet cells from pro-inflammatory cytokines [2] | time after pump implantation until diabetes reversal / hyperglycemia controlled ([3]; diabetic NOD mice, S.C. mini-pump) | diabetes reversal / control of hyperglycemia during pump therapy ([3]; newly diagnosed diabetic NOD mice, S.C. osmotic mini-pump, 28 days) | effect on hyperglycemia [4]
C[C@@H](O)CCCCn1c(=O)c2c(ncn2C)n(C)c1=O [LSF, Lisofylline] | increased | increase mitochondrial metabolism | detected | increase insulin release | increased | could protect isolated islet cells | 10 to 12 days | moderate ability to control blood glucose levels; also recorded: prevented worsening of hyperglycemia | –
glucagon-like peptide-1 (HAEGTFTSDVSSYLEGQAAKEFIAWLVKGR; ends and bridges not checked; UniProt P01275 98-127, looked up) [GLP-1, "incretin synthesized in the small and large intestine by the L-type cells ... released in response to food ingestion"] | – | – | – | – | – | – | – | – | no effect

Reference: patent US7393827B2, “Pharmaceutical compositions and methods for restoring β-cell mass and function” (Diakine Therapeutics, Inc., priority 2004, dated 2008)
